Results taken from patent US20140134178A1, “PHOSPHORYLATION OF HISTONES AND USES THEREOF” (H. LEE MOFFITT CANCER CENTER AND RESEARCH INSTITUTE, priority 2012, published 2014).
Entries after “also recorded” stand apart in the source; their conditions may differ. One block for each compound: values may come before it.

Tests used:
Ack1 [1] = test: Ack1 phosphorylation of histone H3 at Tyr99 in ligand-treated cell lines; type: cell-based
From the text: The discovery was made that Ack1 phosphorylates histone H3 at tyrosine 99. To delineate functional consequences of H3 Ty99-phosphorylation, phospho-antibodies were raised. […] Thus, marking of chromatin with H3-Tyr99-phosphorylation within AR-target gene promoters may suppress repressive dimethylation leading to transcriptional activation in androgen-deprived environment of CRPC tumors. This study uncovers a previously unknown mechanism of regulation of pTyr267-AR-target gene expression, which can be therapeutically reversed by suppression of Ack1/AR/pTyr99-H3 signaling by AIM-100.

Ack1 [2] = molecular target: T1, Ack1 (Homo sapiens, UniProt Q07912); type: biochemical; parameters: endogenous in cells; host or cells: LAPC4; details: purified Ack1, H4 peptide, ELISA with pY88 antibodies
T1 sequence (Q07912 whole entry): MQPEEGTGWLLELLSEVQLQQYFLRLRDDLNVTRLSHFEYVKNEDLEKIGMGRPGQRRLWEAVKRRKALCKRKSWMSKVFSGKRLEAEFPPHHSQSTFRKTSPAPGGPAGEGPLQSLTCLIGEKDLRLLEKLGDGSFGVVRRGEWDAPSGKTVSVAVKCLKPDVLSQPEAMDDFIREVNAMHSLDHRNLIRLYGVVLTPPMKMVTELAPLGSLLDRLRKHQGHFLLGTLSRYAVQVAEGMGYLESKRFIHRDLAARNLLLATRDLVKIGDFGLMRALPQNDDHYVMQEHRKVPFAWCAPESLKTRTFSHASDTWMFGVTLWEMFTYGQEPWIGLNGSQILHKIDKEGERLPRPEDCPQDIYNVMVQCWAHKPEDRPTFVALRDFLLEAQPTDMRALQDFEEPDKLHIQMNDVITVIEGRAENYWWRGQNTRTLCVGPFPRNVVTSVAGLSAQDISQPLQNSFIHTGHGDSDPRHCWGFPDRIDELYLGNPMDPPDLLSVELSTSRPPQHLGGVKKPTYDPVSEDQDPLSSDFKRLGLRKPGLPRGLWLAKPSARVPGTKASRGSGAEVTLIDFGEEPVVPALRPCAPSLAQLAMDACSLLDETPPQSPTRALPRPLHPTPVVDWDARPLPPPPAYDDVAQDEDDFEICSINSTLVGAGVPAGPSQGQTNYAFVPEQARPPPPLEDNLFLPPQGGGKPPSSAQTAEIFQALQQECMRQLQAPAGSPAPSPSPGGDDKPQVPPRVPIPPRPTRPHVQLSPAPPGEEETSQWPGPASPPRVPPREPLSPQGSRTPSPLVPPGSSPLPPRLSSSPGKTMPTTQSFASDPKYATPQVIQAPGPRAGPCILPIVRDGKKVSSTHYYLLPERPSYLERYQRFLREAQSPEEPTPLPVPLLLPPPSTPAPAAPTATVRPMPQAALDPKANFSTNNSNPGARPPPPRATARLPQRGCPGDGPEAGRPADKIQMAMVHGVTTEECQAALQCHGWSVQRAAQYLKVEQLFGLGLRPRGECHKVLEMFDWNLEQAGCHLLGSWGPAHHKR
Experimental: WEE1 and Ack1 are two non-receptor tyrosine kinases or NRTKs that have known nuclear functions. To determine whether WEE1 and Ack1 can directly target H4 for Tyr88-phosphorylation, this study performed in vitro kinase assay. In brief, the Streptavidin coated 96-well plates (R&D systems) were incubated with biotinylated H4-derived peptide […] (SEQ ID NO: 64) for 1 hour. The plates were washed and the purified WEE1 or Ack1 were added in kinase buffer (20 mM HEPES, 150 mM NaCl, 0.5% Triton X-100, 10% Glycerol, phosphatase and protease inhibitors) containing ATP and MgCl2. After 2 hours of incubation, plates were washed with phosphate buffered saline containing 0.1% Tween 20 (PBST) and blocked in 3% BSA. The pY88-H4 antibodies (at 1:500 dilution) were added and incubated for 1 hour. Unbound antibodies were washed and HRP-conjugated anti-mouse secondary Antibodies (1:2000) were added. Magnitude of phosphorylation was detected using developer solution (OPD tablets, Sigma) and the plates were read at 450 nm. As a negative control, no kinase and no peptide reactions were used. The biotinylated phosphopeptide […]p[…] (SEQ ID NO: 65) was used as a positive control.

Ack1 [3] = molecular target: T2, Ack1 (Homo sapiens, UniProt Q07912, E346K); type: biochemical; details: 5 uM for 1 hour at 30° C.
T2 construct: HA; made in house
T2 sequence (Q07912 whole entry E346K): as the sequence (Q07912 whole entry) above, with E346K counted along it
Experimental: To test whether Ack1 directly phosphorylates H4, in vitro kinase assay (Mahajan, K., et al. PLoS One 5, e9646 (2010)) was performed. […] HEK293 cells were treated with EGF or EGF+AIM-100 (5 uM, 14 hour) and lysates were immunoprecipitated with Ack1 antibodies followed by immunoblotting with H4 antibodies.

Ack1 [4] = molecular target: T1, Ack1; test: H4 Tyr51-phosphorylation in EGF-treated HEK293T cells (IP/immunoblot); type: cell-based; parameters: endogenous in cells; host or cells: HEK293T; details: serum starved HEK293T, EGF+AIM-100
Experimental: To examine whether H4 is a Ack1 kinase substrate, cells were treated with EGF or EGF+Ack1 inhibitor, AIM-100 (Mahajan, K., et al. Prostate 70, 1274-1285 (2010)). Specifically, serum starved HEK293T were treated with EGF or EGF+AIM-100 and cells were harvested. […] Equal amounts of lysates were immunoblotted with H4 antibody or pTyr284-Ack1 antibody.

Xenopus laevis embryos = test: Xenopus embryo injection, gastrulation/epiboly phenotype
From the text: Table 4 provides the phenotype distribution for surviving embryos (raw data are identical to those in Table 3).

[5] = system: LNCaP-caAck expressing cells; test: Prostate xenograft tumor growth, LNCaP-caAck cells in castrated nude male mice; type: in vivo; details: 4 mg/kg of body weight per injection, five times
Experimental: Castrated nude male mice were injected with LNCaP-caAck expressing cells. Mice were injected with AIM-100 (4 mg/kg of body weight per injection) on five times (n=8) and tumor volumes were measured.

pTyr267-AR = test: ChIP-qPCR for pTyr267-AR binding to PSA, NKX3.1 and TMPRSS2 AREs in LAPC4 cells; type: cell-based; details: 0.8 μM, 16 hr
Experimental: LAPC4 cells were treated with DHT (5 nM, 16 hr), EGF (10 ng/ml, 1 hr), or EGF and AIM-100 (0.8 μM, 16 hr) and ChIP analysis for pTyr267-AR binding to the PSA, NKX3.1 and TMPRSS2 AREs was performed followed by qPCR. Ack1 inhibition by AIM-100 suppressed recruitment of pTyr-AR to PSA, NKX3,1 and TMPRSS2 promoters (FIGS. 8A-8C).

Ack1 [6] = molecular target: T1, Ack1; type: cell-based; parameters: endogenous in cells; host or cells: LAPC4
Experimental: The prostate cancer derived cells, LAPC4 were treated with AIM-100 (7 uM, 16 hours). The equal amount of cell lysates were subjected to immunoblotting with H3K9me3 and histone H3 antibodies. […] The histone H3 antibodies were used as a control to indicate equal amount of protein.
LAPC4 cells were treated with EGF or EGF and AIM-100 and the lysates were immunoblotted with H3K9 dimethyl and H3K27 dimethyl antibodies.

[7] = system: PSA, NKX3,1 and TMPRSS2 genes; test: Testosterone-independent expression of AR-target genes; type: cell-based
[8] = system: S. cerevisiae wildtype and H2BY40A mutants; test: Yeast spot growth assay on YPD plates with MMS; type: cell-based, Saccharomyces cerevisiae; details: in contrast to wild type cells, growth 72 h post-plating
Experimental: Wt and H2BY40A mutants were serially diluted and spotted on YPD plates in the absence or presence of MMS and growth was assessed 72 h post-plating.
To test whether excess of histones interfere with the ability of cells to repair DNA damage, S. cerevisiae wildtype (Wt) and H2BY40A mutants were exposed to DNA alkylating agent Methylmethane sulphonate (MMS). MMS inhibits DNA replication by methylating adenine or guanine in the DNA to cause base mispairing and stalling of replication forks, until the mutated/alkylated bases are excised out and replaced with the normal bases by the DNA alkyl transferases or the nucleotide repair machinery. […] Rad53 is a functional homologue of human Chk1 and Chk2 in budding yeast. It not only senses DNA replication stress during S phase but also acts as a surveillance machinery to detect excess histones that are not packaged into chromatin and targets them for degradation.

[9] = system: core histone genes in Hist1 cluster; test: Quantitative RT-PCR of core histone transcripts in synchronized MEFs; type: cell-based, mouse; details: MK1775 0.625 μM, 14 hr; 8.30 hours post-release
Experimental: MEFs or H1975 were grown to 60-70% confluency in serum rich media. Thymidine is added at a final concentration of 2 mM and incubated for 17 hours. Cells were washed three times with phosphate buffered saline (PBS) and fresh serum containing media was added. After 10 hours, thymidine was added again to 2 mM final concentration. The cells were incubated for 17 hours and washed three times with PBS, replaced with serum containing media and time points were collected. All RT reactions were done (Mahajan, K. et al. PLoS One 5, e9646 (2010)) at the same time so that the same reactions could be used for all gene studies. For the construction of standard curves, serial dilutions of pooled sample RNA were used (50, 10, 2, 0.4, 0.08, and 0.016 ng) per reverse transcriptase reaction. One “no RNA” control and one “no Reverse Transcriptase” (No RT) controls were included for the standard curve. Three reactions were performed for each sample: 10 ng, 0.8 ng, and a No RT (10 ng) control. Real-time quantitative PCR analyses were performed using the ABI PRISM 7900HT Sequence Detection System (Applied Biosystems). […] Data were analyzed using SDS software version 2.2.2 and exported into an Excel spreadsheet. […]

[10] = system: WEE1 expressing cancer cell lines; details: cited from earlier work
[11] = system: pTyr37-H2B upstream of Hist1 cluster; test: Native ChIP-qPCR with pTyr37-H2B antibody, Site I and II upstream of Hist1 cluster, synchronized MEFs; type: cell-based, mouse; details: 6.30 hours post-release
Experimental: MEFs or H1975 were grown to 60-70% confluency in serum rich media. Thymidine is added at a final concentration of 2 mM and incubated for 17 hours. Cells were washed three times with phosphate buffered saline (PBS) and fresh serum containing media was added. After 10 hours, thymidine was added again to 2 mM final concentration. The cells were incubated for 17 hours and washed three times with PBS, replaced with serum containing media and time points were collected.
As a first step, extensive standardization of pTyr37-H2B antibodies were performed for its usage in ChIP. CHIP was performed using the Active Motif kit as per manufacturer's instructions. For ChIP synchronized MEFs were harvested at 0 and 6.30 hour post thymidine release (5×10^7 cells). Cells pellets were lysed in RLB buffer (Mahajan, N. P. et al. Proc. Nat. Acad. Sci. U.S.A. 104, 8438-8443 (2007); Mahajan, K. et al. Prostate 70, 1274-1285 (2010)) on ice for 10 minutes and sonicated for 25 seconds to shear DNA to an average length of 300-500 bp. The soluble chromatin was incubated overnight at 4° C. with pTyr37-H2B antibody. 20 μl of protein-A agarose was added and the beads were washed sequentially and DNA was eluted. […] Pellets were resuspended and the resulting DNA was quantified on a NanoDrop spectrophotometer. Extrapolation to the original chromatin volume allowed quantitation of the total chromatin yield. […]

[12] = system: core histone genes located in Hist1 cluster; test: qRT-PCR of histone genes in synchronized cells (8-histone gene signature); type: cell-based; details: MK1775 0.6 uM, 14 hr; 8.30 hours post-release
Experimental: Human cells have 55 distinct histone genes each encoding a fraction of core histones. This study determined histone levels using 20 of these genes. In untreated cells, rapid decrease in transcripts of all of these histone genes was observed when RNA levels of 6.30 hours post-release samples (late S phase) were compared with 8.30 hours post-release (G2/M phase) samples (FIG. 33a-h).

[13] = system: NPAT and RNA polymerase II at site II; test: ChIP-qPCR with NPAT or RNA polymerase II antibodies at Site II, synchronized MEFs; type: cell-based, mouse; details: 6.30 hours post-release
Experimental: As a first step, extensive standardization of pTyr37-H2B antibodies were performed for its usage in ChIP. CHIP was performed using the Active Motif kit as per manufacturer's instructions. For ChIP synchronized MEFs were harvested at 0 and 6.30 hour post thymidine release (5×10^7 cells). Cells pellets were lysed in RLB buffer (Mahajan, N. P. et al. Proc. Nat. Acad. Sci. U.S.A. 104, 8438-8443 (2007); Mahajan, K. et al. Prostate 70, 1274-1285 (2010)) on ice for 10 minutes and sonicated for 25 seconds to shear DNA to an average length of 300-500 bp. The soluble chromatin was incubated overnight at 4° C. with pTyr37-H2B antibody. 20 μl of protein-A agarose was added and the beads were washed sequentially and DNA was eluted. Genomic DNA (Input) was prepared by treating aliquots of chromatin with RNase, proteinase-K followed by ethanol precipitation. Pellets were resuspended and the resulting DNA was quantified on a NanoDrop spectrophotometer. Extrapolation to the original chromatin volume allowed quantitation of the total chromatin yield. An aliquot of chromatin (20-30 μg) was pre-cleared with protein-A agarose beads (Invitrogen). Genomic DNA regions of interest were isolated using pTyr37-H2B antibody. […]
To understand the potential mechanism of repression of histone transcription the role of NPAT was assessed. […]

[14] = system: cancers and cancer cell lines; details: cited from earlier work
[15] = Table 3, antibodies 200 ng/em, AIM-100 200 pM/em

Compound: c1ccc(-c2oc3ncnc(NC[C@@H]4CCCO4)c3c2-c2ccccc2)cc1 [AIM-100]
Ack1 phosphorylation of H3 at Tyr99 (Ack1 [1]): significantly compromised
H4 Tyr88-phosphorylation (Ack1 [2]): significantly decreased; also recorded: significantly reduced
H4 pTyr51-phosphorylation (Ack1 [3]): abrogated
H4 pTyr51-phosphorylation (Ack1 [4]): almost complete loss
abn/delay, gastrulation is abnormal or delayed (% of total embryos) (Xenopus laevis embryos; [15]): 6.7%
abn/delay, gastrulation is abnormal or delayed (number of embryos) (Xenopus laevis embryos; [15]): 15
dead (% of total embryos) (Xenopus laevis embryos; [15]): 43%
dead (number of embryos) (Xenopus laevis embryos; [15]): 97
epib blk, epiboly block phenotype (% of total embryos) (Xenopus laevis embryos; [15]): 29%
epib blk, epiboly block phenotype (number of embryos) (Xenopus laevis embryos; [15]): 65
epib red, partial phenotype (% of total embryos) (Xenopus laevis embryos; [15]): 8%
epib red, partial phenotype (number of embryos) (Xenopus laevis embryos; [15]): 18
norm. (% of total embryos) (Xenopus laevis embryos; [15]): 11%
norm. (number of embryos) (Xenopus laevis embryos; [15]): 24
Tot survivors (Xenopus laevis embryos; Table 4): 128
abn/delay (% of surviving embryos) (Xenopus laevis embryos; Table 4, surviving embryos): (12%)
abn/delay (number of surviving embryos) (Xenopus laevis embryos; Table 4, surviving embryos): 15
epib blk (number of surviving embryos) (Xenopus laevis embryos; Table 4, surviving embryos): 65
epib red (number of surviving embryos) (Xenopus laevis embryos; Table 4, surviving embryos): 18
normal (% of surviving embryos) (Xenopus laevis embryos; Table 4, surviving embryos): 19%
normal (number of surviving embryos) (Xenopus laevis embryos; Table 4, surviving embryos): 24
mortality rates (Xenopus laevis embryos; by the onset of gastrulation, ~20 hours after microinjection at the 2-cell stage, 16° C.): 43-45%
mortality at the onset of gastrulation versus controls (Xenopus laevis embryos; in vivo): Neither pTyr51-H4 nor AIM-100 lead to increased mortality
timing or pattern of early cleavages (Xenopus laevis embryos; in vivo): did not alter
epib blk, epiboly block/involution failure (% of surviving embryos) (Xenopus laevis embryos; surviving embryos): 51%
epib red, partial reduced epiboly phenotype (% of surviving embryos) (Xenopus laevis embryos; surviving embryos): 14%
epib blk, epiboly block/involution failure (% of surviving embryos) (Xenopus laevis embryos; surviving embryos, listed as AIM 100): (51%)
prostate xenograft tumor growth [5]: mitigated; also recorded: partially suppresses
recruitment of pTyr-AR to PSA, NKX3,1 and TMPRSS2 promoters (pTyr267-AR): suppressed
H3K9 and K27 dimethylation and trimethylation (Ack1 [6]): increased
H3 K9 trimethylation (Ack1 [6]; LAPC4 cells, 7 uM, 16 hours): increased; also recorded: significant increase
H3K9 and K27 dimethylation (Ack1 [6]; LAPC4 cells, EGF and AIM-100): increased
testosterone-independent expression of PSA, NKX3,1 and TMPRSS2 genes [7]: suppressed

Compound: COS(C)(=O)=O [MMS, Methylmethane sulphonate]
sensitivity of H2BY40A mutants [8]: acute sensitivity; also recorded: marked sensitivity

recruitment of NPAT and RNA polymerase II [13]: binding was detected
Compound: MK-1775
histone mRNA levels [9]: significant increase
apoptosis [10]: selectively induce apoptosis
occurrence of pTyr37-H2B at site I and II [11]: significantly reduced
histone mRNA levels [12]: did not decrease
sensitization to DNA damaging agents such as gemcitabine, 5-fluorouracil [14]: able to sensitize
